# Test results reported in paper PMC5641094, “A peptide antagonist of Prep1-p160 interaction improves ceramide-induced insulin resistance in skeletal muscle cells” (Oncotarget, 2017).
# Assays:
# Prep1 mRNA = test: Real-time RT-PCR of Prep1 mRNA in L6 cells; assay type: cell-based, rat; settings: C2cer 10μM, 18h, normalized to GAPDH, three experiments in triplicate
# Procedure: (§1) Figure 2 Effect of ceramides on Prep1 and p160 mRNA expression and of Prep1-p160 coprecipitation L6 cells were treated with C2cer (10μM) for 18h and Prep1 (A) or p160 (B) mRNA levels were analyzed by real-time RT-PCR analysis. Data were normalized by the amount of GAPDH mRNA, used as internal control. Bars represent the mean ± SD of three independent experiments, each performed in triplicate. (C) L6 cells were treated with cycloheximide (CHX) at 40μg/mL concentration for 18h and the lysates were analyzed by Western blot with anti-p160 and beta-actin. The autoradiograph shown is representative of three different experiments and subjected to densitometric analysis. (D) Protein lysates from L6 cells treated with C2cer as indicated, were immunoprecipitated with Prep1 antibody and immunoblotted with p160 or Prep1 antibodies. The autoradiograph shown is representative of three different experiments and subjected to densitometric analysis. Asterisks denote statistically significant differences (*p<0.05; **p<0.01).
# Total cellular RNA was isolated from L6 cells by using the RNeasy kit (QIAGEN Sciences, Germany), according to manufacturer instructions. 1μg of cell RNA was reverse-transcribed using Superscript III Reverse Transcriptase (Life Technologies Carlsbad, CA, USA). PCR reactions were analyzed using IQTM SYBR Green Supermix (Bio-Rad, Hercules, CA). […]
# Prep1/p160 complex = target: T1, Prep1/p160 complex (Rattus norvegicus, UniProt O35821); test: Prep1-p160 co-immunoprecipitation in L6 cells; assay type: cell-based
# T1 construct: endogenous in cells; host or cells: L6 rat skeletal muscle cells
# T1 sequence (O35821 1-1344): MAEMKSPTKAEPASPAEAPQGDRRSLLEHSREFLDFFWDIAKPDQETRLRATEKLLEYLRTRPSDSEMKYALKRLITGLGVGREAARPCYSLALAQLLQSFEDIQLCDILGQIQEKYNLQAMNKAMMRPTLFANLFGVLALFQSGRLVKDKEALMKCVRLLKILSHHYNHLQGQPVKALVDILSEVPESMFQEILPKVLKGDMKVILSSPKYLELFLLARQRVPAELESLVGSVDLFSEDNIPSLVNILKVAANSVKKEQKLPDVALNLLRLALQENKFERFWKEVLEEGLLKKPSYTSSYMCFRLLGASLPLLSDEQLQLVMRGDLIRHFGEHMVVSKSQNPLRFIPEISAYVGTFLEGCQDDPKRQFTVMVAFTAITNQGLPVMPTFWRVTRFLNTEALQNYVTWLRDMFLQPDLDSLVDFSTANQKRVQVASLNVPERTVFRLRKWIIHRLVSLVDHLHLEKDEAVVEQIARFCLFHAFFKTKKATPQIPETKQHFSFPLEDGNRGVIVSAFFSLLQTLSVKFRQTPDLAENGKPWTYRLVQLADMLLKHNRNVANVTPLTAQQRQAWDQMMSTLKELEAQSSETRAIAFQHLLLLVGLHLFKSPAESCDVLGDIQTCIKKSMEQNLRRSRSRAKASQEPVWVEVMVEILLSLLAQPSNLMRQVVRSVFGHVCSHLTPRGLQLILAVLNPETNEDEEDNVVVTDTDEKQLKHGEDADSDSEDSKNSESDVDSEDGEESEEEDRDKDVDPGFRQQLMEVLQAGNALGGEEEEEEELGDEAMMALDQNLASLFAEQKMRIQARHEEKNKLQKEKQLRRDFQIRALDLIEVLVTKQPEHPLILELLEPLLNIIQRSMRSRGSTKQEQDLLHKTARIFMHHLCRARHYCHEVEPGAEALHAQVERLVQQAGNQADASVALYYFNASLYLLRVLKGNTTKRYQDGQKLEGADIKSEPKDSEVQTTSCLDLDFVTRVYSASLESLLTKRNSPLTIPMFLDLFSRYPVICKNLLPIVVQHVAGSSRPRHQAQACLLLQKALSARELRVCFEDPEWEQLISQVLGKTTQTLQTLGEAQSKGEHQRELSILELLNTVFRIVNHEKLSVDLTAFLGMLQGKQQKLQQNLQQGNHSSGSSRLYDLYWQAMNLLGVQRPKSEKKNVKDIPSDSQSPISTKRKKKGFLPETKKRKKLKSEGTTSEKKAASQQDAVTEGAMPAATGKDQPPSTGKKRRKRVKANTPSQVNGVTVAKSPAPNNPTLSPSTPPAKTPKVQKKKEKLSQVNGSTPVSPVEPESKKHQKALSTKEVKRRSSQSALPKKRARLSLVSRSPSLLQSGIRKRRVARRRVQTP
# Procedure: as §1, with “(D) Protein lysates from L6 cells treated with C2cer as indicated, were immunoprecipitated with Prep1 antibody and immunoblotted with p160 or Prep1 antibodies. The autoradiograph shown is representative of three different experiments and subjected to densitometric analysis. Asterisks denote statistically significant differences (*p<0.05; **p<0.01).” left out
# Figure 3 Design and in vitro effects of Prep1(54-72) peptide on Prep1/p160 association (A) Binding curves of Prep1(59-72) and Prep1(54-72) peptides to p160_20-160 by ELISA-like assays. […] (C) L6 cells were incubated with increasing concentrations of the fluorescein-conjugated peptide (FITC-Prep1(54-72)) and peptide uptake was detected by FACS analysis of fluorescein-labeled cells. […] Protein lysates were immunoprecipitated with Prep1 antibodies and analyzed by Western blot using antibodies for p160 or for Prep1. […] The blots were detected by ECL and autoradiography. […]
# Total cell lysates were obtained and separated by SDS-PAGE. […] The protein concentrations in the cell lysates were measured using a Bio-Rad DC (detergent compatible) assay. […]
# L6 cells = test: Cell toxicity in L6 cells; assay type: cell-based, rat; settings: highest concentration 100μM, data not shown
induction of Prep1-p160 association (Prep1/p160 complex; C2cer) [%],"effect on ceramide-stimulated Prep1-p160 co-precipitation (Prep1/p160 complex; C2cer 10μM 18h, incubated with Prep1(54-72))",Compound,increase of Prep1 mRNA levels (Prep1 mRNA) [fold],toxicity for the cells (L6 cells)
80,,"CCCCCCCCCCCCC/C=C/[C@@H](O)[C@H](CO)NC(C)=O [C2cer, D-erythro-Sphingosine, N-Acetyl-, reference compound]",3.2,slightly toxic
,almost completely reverted,Ac-KQAIYRHPLFPLLALLFEK-NH2 [Prep1(54-72)],,
